System: p53 signaling pathway in MT373 tumors
Assay: MT373 syngeneic sarcoma model: mouse p53 signaling pathway profiling panel
Format: in vivo

SMILES: CCn1c(C#CCNc2ccccc2)cc2cc(CNC3CCN(C)CC3)ccc21 [Compound 1, 1-Anilino-3-{1-ethyl-5-[(1-methyl-4-piperidylamino)methyl]-1H-indol-2-yl}-2-propyne]
- Il6 fold increase or percent reduction vs vehicle control (150 mg/kg BIDx1, 8 h): 42.72 fold or %
- Jun fold increase or percent reduction vs vehicle control (150 mg/kg BIDx1, 8 h): 32.68 fold or %
- Kras fold increase or percent reduction vs vehicle control (150 mg/kg BIDx1, 8 h): 8.77 fold or %
- Lig4 fold increase or percent reduction vs vehicle control (150 mg/kg BIDx1, 8 h): 9.59 fold or %
- Mdm2 fold increase or percent reduction vs vehicle control (150 mg/kg BIDx1, 8 h): 7.29 fold or %
- Mdm4 fold increase or percent reduction vs vehicle control (150 mg/kg BIDx1, 8 h): 0.59 fold or %
- Mel1 fold increase or percent reduction vs vehicle control (150 mg/kg BIDx1, 8 h): 3.87 fold or %
- Mlh1 fold increase or percent reduction vs vehicle control (150 mg/kg BIDx1, 8 h): 28.64 fold or %
- Msh2 fold increase or percent reduction vs vehicle control (150 mg/kg BIDx1, 8 h): 35.13 fold or %
- Myod1 fold increase or percent reduction vs vehicle control (150 mg/kg BIDx1, 8 h): 14.90 fold or %
- Nf1 fold increase or percent reduction vs vehicle control (150 mg/kg BIDx1, 8 h): 17.13 fold or %
- Nfkb1 fold increase or percent reduction vs vehicle control (150 mg/kg BIDx1, 8 h): 6.02 fold or %
- Pcna fold increase or percent reduction vs vehicle control (150 mg/kg BIDx1, 8 h): 44.75 fold or %
- Pmaip1 fold increase or percent reduction vs vehicle control (150 mg/kg BIDx1, 8 h): 2.33 fold or %
- Ppm1d fold increase or percent reduction vs vehicle control (150 mg/kg BIDx1, 8 h): 1.44 fold or %
- Prc1 fold increase or percent reduction vs vehicle control (150 mg/kg BIDx1, 8 h): 17.14 fold or %
- Prkca fold increase or percent reduction vs vehicle control (150 mg/kg BIDx1, 8 h): 27.03 fold or %
- Pten fold increase or percent reduction vs vehicle control (150 mg/kg BIDx1, 8 h): 14.47 fold or %
- Pttg1 fold increase or percent reduction vs vehicle control (150 mg/kg BIDx1, 8 h): 3.91 fold or %
- Rb1 fold increase or percent reduction vs vehicle control (150 mg/kg BIDx1, 8 h): 1.08 fold or %
- Rela fold increase or percent reduction vs vehicle control (150 mg/kg BIDx1, 8 h): 5.08 fold or %
- Rprm fold increase or percent reduction vs vehicle control (150 mg/kg BIDx1, 8 h): 1.81 fold or %
- Serpinb5 fold increase or percent reduction vs vehicle control (150 mg/kg BIDx1, 8 h): 2.43 fold or %
- Sesn2 fold increase or percent reduction vs vehicle control (150 mg/kg BIDx1, 8 h): 2.88 fold or %
- Sfn fold increase or percent reduction vs vehicle control (150 mg/kg BIDx1, 8 h): 15.09 fold or %
- Sirt1 fold increase or percent reduction vs vehicle control (150 mg/kg BIDx1, 8 h): 24.95 fold or %
- Stat1 fold increase or percent reduction vs vehicle control (150 mg/kg BIDx1, 8 h): 1.23 fold or %
- Tnf fold increase or percent reduction vs vehicle control (150 mg/kg BIDx1, 8 h): 1.57 fold or %
- Traf1 fold increase or percent reduction vs vehicle control (150 mg/kg BIDx1, 8 h): 1.4 fold or %
- Trp53bp2 fold increase or percent reduction vs vehicle control (150 mg/kg BIDx1, 8 h): 29.54 fold or %
- Trp53 fold increase or percent reduction vs vehicle control (150 mg/kg BIDx1, 8 h): 16.49 fold or %
- Apex1 fold increase or percent reduction vs vehicle control (150 mg/kg BIDx1, 24 h): 29.90 fold or %
- Atm fold increase or percent reduction vs vehicle control (150 mg/kg BIDx1, 24 h): 24.13 fold or %
- Atr fold increase or percent reduction vs vehicle control (150 mg/kg BIDx1, 24 h): 14.58 fold or %
- Bag1 fold increase or percent reduction vs vehicle control (150 mg/kg BIDx1, 24 h): 32.76 fold or %
- Bax fold increase or percent reduction vs vehicle control (150 mg/kg BIDx1, 24 h): 1.61 fold or %
- Bbc3 fold increase or percent reduction vs vehicle control (150 mg/kg BIDx1, 24 h): 2.27 fold or %
- Bcl2 fold increase or percent reduction vs vehicle control (150 mg/kg BIDx1, 24 h): 20.93 fold or %
- Bid fold increase or percent reduction vs vehicle control (150 mg/kg BIDx1, 24 h): 1.08 fold or %
- Birc5 fold increase or percent reduction vs vehicle control (150 mg/kg BIDx1, 24 h): 53.57 fold or %
- Brca1 fold increase or percent reduction vs vehicle control (150 mg/kg BIDx1, 24 h): 44.99 fold or %
- Brca2 fold increase or percent reduction vs vehicle control (150 mg/kg BIDx1, 24 h): 34.71 fold or %
- Btg2 fold increase or percent reduction vs vehicle control (150 mg/kg BIDx1, 24 h): 1.06 fold or %
- Casp2 fold increase or percent reduction vs vehicle control (150 mg/kg BIDx1, 24 h): 28.04 fold or %
- Ccnb1 fold increase or percent reduction vs vehicle control (150 mg/kg BIDx1, 24 h): 69.21 fold or %
- Ccne1 fold increase or percent reduction vs vehicle control (150 mg/kg BIDx1, 24 h): 38.46 fold or %
- Ccng1 fold increase or percent reduction vs vehicle control (150 mg/kg BIDx1, 24 h): 6.84 fold or %
- Ccnh fold increase or percent reduction vs vehicle control (150 mg/kg BIDx1, 24 h): 16.52 fold or %
- Cdc25a fold increase or percent reduction vs vehicle control (150 mg/kg BIDx1, 24 h): 41.75 fold or %
- Cdk1 fold increase or percent reduction vs vehicle control (150 mg/kg BIDx1, 24 h): 64.58 fold or %
- Cdk4 fold increase or percent reduction vs vehicle control (150 mg/kg BIDx1, 24 h): 55.89 fold or %
- Cdkn1a fold increase or percent reduction vs vehicle control (150 mg/kg BIDx1, 24 h): 10.93 fold or %
- Cdkn2a fold increase or percent reduction vs vehicle control (150 mg/kg BIDx1, 24 h): 36.93 fold or %
- Chek1 fold increase or percent reduction vs vehicle control (150 mg/kg BIDx1, 24 h): 58.77 fold or %
- Cradd fold increase or percent reduction vs vehicle control (150 mg/kg BIDx1, 24 h): 18.77 fold or %
- Cul9 fold increase or percent reduction vs vehicle control (150 mg/kg BIDx1, 24 h): 1.05 fold or %
- Dapk1 fold increase or percent reduction vs vehicle control (150 mg/kg BIDx1, 24 h): 1.14 fold or %
- Dnmt1 fold increase or percent reduction vs vehicle control (150 mg/kg BIDx1, 24 h): 22.85 fold or %
- E2f1 fold increase or percent reduction vs vehicle control (150 mg/kg BIDx1, 24 h): 26.25 fold or %
- E2f3 fold increase or percent reduction vs vehicle control (150 mg/kg BIDx1, 24 h): 39.40 fold or %
- Egfr fold increase or percent reduction vs vehicle control (150 mg/kg BIDx1, 24 h): 47.37 fold or %
- Egr1 fold increase or percent reduction vs vehicle control (150 mg/kg BIDx1, 24 h): 66.33 fold or %
- Ep300 fold increase or percent reduction vs vehicle control (150 mg/kg BIDx1, 24 h): 1.15 fold or %
- Ercc1 fold increase or percent reduction vs vehicle control (150 mg/kg BIDx1, 24 h): 34.86 fold or %
- Esr1 fold increase or percent reduction vs vehicle control (150 mg/kg BIDx1, 24 h): 1.24 fold or %
- Fadd fold increase or percent reduction vs vehicle control (150 mg/kg BIDx1, 24 h): 8.43 fold or %
- Fas fold increase or percent reduction vs vehicle control (150 mg/kg BIDx1, 24 h): 1.94 fold or %
- Fasl fold increase or percent reduction vs vehicle control (150 mg/kg BIDx1, 24 h): 6.77 fold or %
- Foxo3 fold increase or percent reduction vs vehicle control (150 mg/kg BIDx1, 24 h): 1.20 fold or %
- Gadd45a fold increase or percent reduction vs vehicle control (150 mg/kg BIDx1, 24 h): 38.66 fold or %
- Hif1a fold increase or percent reduction vs vehicle control (150 mg/kg BIDx1, 24 h): 10.42 fold or %
- Il6 fold increase or percent reduction vs vehicle control (150 mg/kg BIDx1, 24 h): 85.31 fold or %
- Jun fold increase or percent reduction vs vehicle control (150 mg/kg BIDx1, 24 h): 46.70 fold or %
- Kras fold increase or percent reduction vs vehicle control (150 mg/kg BIDx1, 24 h): 9.19 fold or %
- Lig4 fold increase or percent reduction vs vehicle control (150 mg/kg BIDx1, 24 h): 1.02 fold or %
- Mdm2 fold increase or percent reduction vs vehicle control (150 mg/kg BIDx1, 24 h): 5.96 fold or %
- Mdm4 fold increase or percent reduction vs vehicle control (150 mg/kg BIDx1, 24 h): 1.22 fold or %
- Mel1 fold increase or percent reduction vs vehicle control (150 mg/kg BIDx1, 24 h): 9.59 fold or %
- Mlh1 fold increase or percent reduction vs vehicle control (150 mg/kg BIDx1, 24 h): 10.59 fold or %
- Msh2 fold increase or percent reduction vs vehicle control (150 mg/kg BIDx1, 24 h): 26.97 fold or %
- Myod1 fold increase or percent reduction vs vehicle control (150 mg/kg BIDx1, 24 h): 3.09 fold or %
- Nf1 fold increase or percent reduction vs vehicle control (150 mg/kg BIDx1, 24 h): 12.02 fold or %
- Nfkb1 fold increase or percent reduction vs vehicle control (150 mg/kg BIDx1, 24 h): 5.42 fold or %
